Biological target: T1, pig odorant-binding protein (pOBP) (Sus scrofa, UniProt P81245)
T1 construct: recombinant pOBP, GST tag removed by thrombin; monomer of 157 amino acids
T1 sequence (P81245 1-157): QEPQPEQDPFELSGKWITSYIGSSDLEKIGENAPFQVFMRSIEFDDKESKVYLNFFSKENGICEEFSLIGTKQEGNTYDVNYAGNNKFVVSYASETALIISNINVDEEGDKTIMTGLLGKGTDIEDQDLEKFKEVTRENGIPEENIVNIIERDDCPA
Experiment: competitive FRET displacement of 1-AMA; also impedance (EIS) with immobilised pOBP

Kd: 18.5 mM
Compound: C=CC(O)CCCCC (stereo not shown) [1-octen-3-ol]
